According to patent US20210008047A1, “TARGETING MINIMAL RESIDUAL DISEASE IN CANCER WITH RXR ANTAGONISTS” (VIB VZW, priority 2018, published 2021):

Assays:
MEL006 cells = test: FACS of GFRA2-positive (NDTC) cells in drug-exposed MEL006 cultures
Procedure: Cells from dissociated MEL006 tumors were grown in 5% CO2 at 37° C. in F10 (Gibco, Life Technologies) supplemented with 10% FBS (Gibco, Life Technologies) and 0.25% Glutamax (Gibco, Life Technologies).
Cells were incubated with GFRA2 antibody (AF429 R&D 3 μg/mL) for 45 minutes at room temperature, followed by anti-goat secondary antibody conjugated with Alexa Fluor® 594 (ThermoFisherScientific) for 30 min at room temperature. Cells were resuspended in FACS sorting buffer (culture medium supplied with 1% EDTA 100 mM).
To assess whether emergence of NDTCs upon MAPK inhibition is cancer cell intrinsic or depends on micro-environmental cues, we exposed 2D cultures of Me1006 to near IC25 concentrations of dabrafenib and trametinib for 10 days.

MM052 cells = test: Colony assay and Cell Titer Glo assay in short-term melanoma culture MM052; type: cell-based, human
Procedure: E) and Cell Titer Glo assay performed after 6 days after incubation of the short culture melanoma line MM052 with MEK inhibitor trametinib (TRA; 2 nM), RXRG agonist bexarotene (BEX; 1 uM), FAK inhibitor PF-562271 (1 uM) and RXRG antagonist HX531 (2 uM).
Cells were grown to near confluency on 12well plates and treated with the indicated drug combinations for the indicated time period. Cells were washed once with PBS, stained with crystal violet (1% crystal violet w/v, 35% methanol v/v) for 15 min, washed with PBS and destained in tap water.
2500 cells were plated onto a 96well plate and treated with the indicated drug combinations for the indicated time period. Cell Titer Glo assay was performed according to the manufacturer's instruction (Promega) and luminescence was measured on a VictorX3 (Perkin Elmer).

With `CN1c2ccc([N+](=O)[O-])cc2N=C(c2ccc(C(=O)O)cc2)c2cc3c(cc21)C(C)(C)CCC3(C)C` [HX531] the “Drug-dependent induction of GFRA2-positive cells” value (MEL006 cells; in the presence of IC50 concentrations of the BRAF and MEK-inhibitors) was “completely inhibited” and the “Sensitization of cells to trametinib” value (MM052 cells; MM52, HX531 2 uM, trametinib 2 nM per FIG. 7 legend) was “sensitized”.
`CN(c1ncccc1CNc1nc(Nc2ccc3c(c2)CC(=O)N3)ncc1C(F)(F)F)S(C)(=O)=O` [PF-562271] was tested, and the “Drug-dependent emergence of the GFRA2-high cell population” value (MEL006 cells; FAK inhibitor together with DT, dose-dependent) was “diminished” and the “Sensitivity of GFRA2high cells to FAK inhibitors” value (MEL006 cells; MEL006 cells treated with DT and or FAK inhibitors, then FACS sorted for GFRA2) was “sensitive”.
With `C=C(c1ccc(C(=O)O)cc1)c1cc2c(cc1C)C(C)(C)CCC2(C)C` [bexarotene] the “Sensitivity of cells to a combination of trametinib/FAK-inhibitors” value (MM052 cells; MM52) was “increased”, the Long-term growth inhibition (MM052 cells; MM52, bexarotene alone) was “did not induce measurable long-term growth inhibition” and the “Sensitivity of cells to trametinib” value (MM052 cells; MM52, bexarotene at concentrations as low as 10 nM) was “significantly decreased”. For the same compound, the “Cells in which cell death occurred” value (MM052 cells; bexarotene with trametinib/FAK-inhibitors, after 3 days of treatment (data not shown)) was roughly 100%.
